Legend:
[1] = target: T1, yeast Gal4-DNA binding domain fused to the ligand binding domain of human RORγ (Homo sapiens, UniProt P51449); experiment: RORγ Reporter Assay (Gal4); assay type: cell-based; conditions: values given as lower bounds of ranges; for Gal4 activity range @ 0.1 μM (% inhibition): RORγ Reporter Assay (Gal4) at 0.1 μM; for Gal4 activity range @ 1 μM (% inhibition): RORγ Reporter Assay (Gal4) at 1 μM
T1 construct: host or cells: HEK293t
T1 sequence (P51449 269-508 limits assumed): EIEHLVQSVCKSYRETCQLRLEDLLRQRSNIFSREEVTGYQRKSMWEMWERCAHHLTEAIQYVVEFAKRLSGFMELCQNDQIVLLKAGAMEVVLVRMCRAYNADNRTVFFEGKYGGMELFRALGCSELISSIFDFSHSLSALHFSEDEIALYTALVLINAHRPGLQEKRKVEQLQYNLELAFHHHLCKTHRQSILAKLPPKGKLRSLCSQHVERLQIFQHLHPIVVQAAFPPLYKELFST
Protocol: (§1) The activity of the compounds was evaluated using a Fluorescence Polarization (FP) Assay and, in most cases, a Th17 Assay and/or RORγ Reporter assay (also referred to as Gal4 assay). The FP assay is an in vitro assay monitoring binding within the ligand binding pocket. The RORγ and the Th17 assays are both cell-based assays monitoring functional activity of the compound assayed.
Cell-based RORγ functional assays were performed using a commercially available assay product (INDIGO Biosciences, State College, Pa., USA; product # IB04001). The RORγ reporter cells are HEK293t cells transfected with one vector that provides high level constitutive expression of a hybrid protein comprised of the yeast Gal4-DNA binding domain fused to the ligand binding domain of human RORγ, and a second vector comprising the firefly luciferase cDNA functionally linked to the upstream activation sequence (UAS) of yeast Gal4. A suspension of RORγ Reporter Cells was prepared using the protocol and culture medium provided in the kit product, and 100 μl of the Reporter Cell suspension was then dispensed into wells of a white, collagen-treated, 96-well assay plate. Concentrated stocks of test compounds were prepared in DMSO, then further diluted using media provided in the kit to generate ‘2×-concentration’ treatment media. 100 μl of medium for each respective treatment concentration dispensed into triplicate assay wells, thereby combining with the reporter cells. All media formulations contained 10% charcoal stripped Fetal Bovine Serum, but are otherwise proprietary to INDIGO Biosciences. Final treatment concentrations for each test compound were 1,000 nM and 100 nM, each with 0.1% residual DMSO. Separate control treatments were media supplemented with vehicle only (0.1% DMSO) to determine the constitutive level of RORγ activity in the reporter cells, and the reference inverse-agonist ursolic acid (f.c. 6,000 nM to 8.2 nM in 3-fold decrements) to establish a positive control inverse-agonist dose response. Assay plates were placed in a 37° C., 5% CO2, 85% humidity incubator for 24 hour. Treatment media were then discarded, 100 μl of luciferase detection reagent was added to each well, and relative light units (RLUs) were quantified from each assay well using a plate reading luminometer. Values of average RLU+/−standard deviation were computed for all treatment sets, followed by the calculations of fold-reduction: [Average RLUVehicle/Average RLUTest Cmpd]. Percent-reduction of RORγ activity in response to respective test compound treatments was calculated: [100*(1−[Ave RLUTest Cmpd/Ave RLUVehicle)] where the theoretical minimum reduction (0% reduction) derives from Vehicle treatment only, no treatment compound.

[2] = target: T2, human RORγt (Ligand Binding Domain) (Homo sapiens, UniProt P51449); experiment: Fluorescence Polarization (FP) Assay; conditions: Fluorescence Polarization (FP) Assay; values given as upper bounds of activity ranges; read-out: FP activity range
T2 construct: purchased Crelux (Planegg, Germany) batch no PC5032-1
T2 sequence (P51449 269-508 limits assumed): T1 sequence (P51449 269-508 limits assumed)
Protocol: as §1
The total volume was 25 μl, in a black Perkin Elmer OptiPlate. As negative control, 1 μl DMSO was used. […] The probe is a fluorescently labeled (TAMRA) RORγt ligand identified by Nuevolution with a total molecular weight of 910 g/mole as shown in Graph A in FIG. 1.

Row | Compound | Gal4 activity range @ 0.1 μM (% inhibition) [1] | Gal4 activity range @ 1 μM (% inhibition) [1] | IC50 [2]
1 | Cc1ccc(CNc2ncnc(N3CCCC3c3ccc(C(F)(F)F)cc3O)c2F)cn1 (centres unmarked) [Example 104, 2-[1-[5-fluoro-6-[(6-methyl-3-pyridyl)methylamino]pyrimidin-4-yl]pyrrolidin-2-yl]-5-(trifluoromethyl)pheno1] | >0 % inhibition | >20 % inhibition | 
2 | CC(C)C1CCC(CNc2ncnc(N3CCC[C@@H]3c3ccc(C(F)(F)F)cc3)c2F)CC1 (stereo partly drawn) [Example 178, 5-fluoro-N-[(4-isopropylcyclohexyl)methyl]-6-[(2R)-2-[4-(trifluoromethyl)phenyl]pyrrolidin-1-yl]pyrimidin-4-amine] |  |  | < 0.5 µM
3 | Cn1ccc(CNc2ncnc(N3CCCC3c3ccc(C(F)(F)F)cc3)c2F)c1 (centres unmarked) [Example 105, 5-fluoro-N-[(1-methylpyrrol-3-yl)methyl]-6-[2-[4-(trifluoromethyl)phenyl]pyrrolidin-1-yl]pyrimidin-4-amine] |  |  | < 10 µM
4 | CC(C)C[C@@H](Nc1ncnc(N2CC(C)CC2c2ccc(C(F)(F)F)cc2)c1F)C(N)=O (stereo partly drawn) [Example 34, (2R)-2-[[5-fluoro-6-[4-methyl-2-[4-(trifluoromethyl)phenyl]pyrrolidin-1-yl]pyrimidin-4-yl]amino]-4-methyl-pentanamide] |  |  | < 1 µM
5 | O=C(c1ccc(CNc2ncnc(N3CCCC3c3ccc(C(F)(F)F)cc3)c2F)cc1)N1CCOCC1 (centres unmarked) [Example 57, [4-[[[5-fluoro-6-[2-[4-(trifluoromethyl)phenyl]pyrrolidin-1-yl]pyrimidin-4-yl]amino]methyl]phenyl]-morpholino-methanone] |  |  | < 10 µM
6 | CCC(Nc1ncnc(N2CCCC2c2ccc(C(F)(F)F)cc2)c1F)c1ccc2c(c1)OCCCO2 (centres unmarked) [Example 55, N-[1-(3,4-dihydro-2H-1,5-benzodioxepin-7-yl)propyl]-5-fluoro-6-[2-[4-(trifluoromethyl)phenyl]pyrrolidin-1-yl]pyrimidin-4-amine] |  |  | < 10 µM
7 | CNC(=O)c1cccc(CNc2ncnc(N3CCCC3c3ccc(C(F)(F)F)cc3)c2F)c1 (centres unmarked) [Example 144, 3-[[[5-fluoro-6-[2-[4-(trifluoromethyl)phenyl]pyrrolidin-1-yl]pyrimidin-4-yl]amino]methyl]-N-methyl-benzamide] |  |  | < 10 µM
8 | Cc1nc(CNc2ncnc(N3CCCC3c3ccc(C(F)(F)F)cc3)c2F)ccc1C(C)O (centres unmarked) [Example 112, 1-[6-[[[5-fluoro-6-[2-[4-(trifluoromethyl)phenyl]pyrrolidin-1-yl]pyrimidin-4-yl]amino]methyl]-2-methyl-3-pyridyl]ethanol] | >0 % inhibition | >20 % inhibition | 
9 | Fc1c(NCC2CCCC2)ncnc1N1CCC[C@@H]1c1ccc(C(F)(F)F)cc1 [Example 218, N-(cyclopentylmethyl)-5-fluoro-6-[(2R)-2-[4-(trifluoromethyl)phenyl]pyrrolidin-1-yl]pyrimidin-4-amine] |  |  | < 10 µM
10 | COc1nc(C)ccc1CNc1ncnc(N2CCCC2c2ccc(C(F)(F)F)cc2)c1F (centres unmarked) [Example 99, 5-fluoro-N-[(2-methoxy-6-methyl-3-pyridyl)methyl]-6-[2-[4-(trifluoromethyl)phenyl]pyrrolidin-1-yl]pyrimidin-4-amine] | >20 % inhibition | >50 % inhibition | 
11 | Cc1cccc(CNc2ncnc(N3CCCC3c3ccc(C(F)(F)F)cc3)c2F)n1 (centres unmarked) [Example 132, 5-fluoro-N-[(6-methyl-2-pyridyl)methyl]-6-[2-[4-(trifluoromethyl)phenyl]pyrrolidin-1-yl]pyrimidin-4-amine] |  |  | < 10 µM
12 | COCc1cccc(CNc2ncnc(N3CCCC3c3ccc(C(F)(F)F)cc3)c2F)c1 (centres unmarked) [Example 147, 5-fluoro-N-[[3-(methoxymethyl)phenyl]methyl]-6-[2-[4-(trifluoromethyl)phenyl]pyrrolidin-1-yl]pyrimidin-4-amine] |  |  | < 2 µM
13 | [O-][n+]1ccc(CNc2ncnc(N3CCC[C@@H]3c3ccc(C(F)(F)F)cc3)c2F)cc1 [Example 194, 5-fluoro-N-[(1-oxidopyridin-1-ium-4-yl)methyl]-6-[(2R)-2-[4-(trifluoromethyl)phenyl]pyrrolidin-1-yl]pyrimidin-4-amine] |  |  | < 2 µM
14 | Cc1cnc(CNc2ncnc(N3CCCC3c3ccc(C(F)(F)F)cc3)c2F)o1 (centres unmarked) [Example 213, 5-fluoro-N-[(5-methyloxazol-2-yl)methyl]-6-[2-[4-(trifluoromethyl)phenyl]pyrrolidin-1-yl]pyrimidin-4-amine] |  |  | < 10 µM
15 | Fc1c(NCC2CCCS2)ncnc1N1CCC[C@@H]1c1ccc(C(F)(F)F)cc1 (stereo partly drawn) [Example 159, 5-fluoro-N-(tetrahydrothiophen-2-ylmethyl)-6-[(2R)-2-[4-(trifluoromethyl)phenyl]pyrrolidin-1-yl]pyrimidin-4-amine] |  |  | < 2 µM
16 | NC(=O)Cc1ccc(COc2ncnc(N3CCCC3c3ccc(C(F)(F)F)nc3)c2F)cc1 (centres unmarked) [Example 84, 2-[4-[[5-fluoro-6-[2-[6-(trifluoromethyl)-3-pyridyl]pyrrolidin-1-yl]pyrimidin-4-yl]oxymethyl]phenyl]acetamide] |  | >20 % inhibition | 
17 | O=C1CCCN1Cc1ccc(CNc2ncnc(N3CCCC3c3ccc(C(F)(F)F)cc3)c2F)cc1 (centres unmarked) [Example 124, 1-[[4-[[[5-fluoro-6-[2-[4-(trifluoromethyl)phenyl]pyrrolidin-1-yl]pyrimidin-4-yl]amino]methyl]phenyl]methyl] pyrrolidin-2-one] |  | >20 % inhibition | 
18 | O=C(c1ccncc1)N1CCC(Nc2ncnc(N3CCCC3c3ccc(C(F)(F)F)cc3)c2F)C1 (centres unmarked) [Example 121, [3-[[5-fluoro-6-[2-[4-(trifluoromethyl)phenyl]pyrrolidin-1-yl]pyrimidin-4-yl]amino]pyrrolidin-1-yl]-(4-pyridyl)methanone] | >20 % inhibition | >50 % inhibition | 
19 | O=C(O)Cc1ccc(CNc2ncnc(N3CCC[C@@H]3c3ccc(C(F)(F)F)cc3)c2F)cc1 [Example 117, 2-[4-[[[5-fluoro-6-[(2R)-2-[4-(trifluoromethyl)phenyl]pyrrolidin-1-yl]pyrimidin-4-yl]amino]methyl]phenyl]acetic acid] | >50 % inhibition |  | 
20 | Cc1ccc(CNc2ncnc(-n3nncc3-c3ccc(C(F)(F)F)cc3)c2F)cn1 [Example 96, 5-fluoro-N-[(6-methyl-3-pyridyl)methyl]-6-[5-[4-(trifluoromethyl)phenyl]triazol-1-yl]pyrimidin-4-amine] | >0 % inhibition | >20 % inhibition | 
21 | NC(=O)Cc1ncc(COc2ncnc(N3CCCC3c3ccc(C(F)(F)F)cc3)c2F)cn1 (centres unmarked) [Example 86, 2-[5-[[5-fluoro-6-[2-[4-(trifluoromethyl)phenyl]pyrrolidin-1-yl]pyrimidin-4-yl]oxymethyl]pyrimidin-2-yl]acetamide] |  | >20 % inhibition | 
22 | NC(=O)Cc1ncc(CNc2ncnc(N3CCCC3c3ccc(C(F)(F)F)cc3)c2F)cn1 (centres unmarked) [Example 87, 2-[5-[[[5-fluoro-6-[2-[4-(trifluoromethyl)phenyl]pyrrolidin-1-yl]pyrimidin-4-yl]amino]methyl]pyrimidin-2-yl]acetamide] |  | >20 % inhibition | 
23 | NC(=O)Cc1ccc(CNc2ncnc(N3CCCC3c3ccccc3)c2F)cc1 (centres unmarked) [Example 279, 2-[4-[[[5-fluoro-6-(2-phenylpyrrolidin-1-yl)pyrimidin-4-yl]amino]methyl]phenyl]acetamide] | >20 % inhibition | >50 % inhibition | 

Reference: patent US10689383B2, “Optionally fused heterocyclyl-substituted derivatives of pyrimidine useful for the treatment of inflammatory, metabolic, oncologic and autoimmune diseases” (NUEVOLUTION A/S, priority 2014, dated 2020)
